System: antibody derived from Immunogen of Example 9
Assay: Competitive immunoassay (ELISA), IC50 derivation and cross-reactivity
Type: binding, sheep
Conditions: for binding to the antibodies of the invention: "does not bind" = cross-reactivity of less than 2% vs 100% for AKB48 under Example 12 conditions; for % CROSS-REACTIVITY: single cross-reactant at 300 ng/ml, compared to 100% for AKB48, Tracer 1 of Example 10
Protocol: All cross-reactivity are measured herein under the experimental conditions of Example 12 and compared to 100% for AKB48.
IgG is extracted from the antisera and immobilised on a 96 well ELISA plate (coated for 2 hours at +37° C. at 10 ug/ml in a Phosphate Buffered Saline pH7.2). Unbound material is removed by washing with Tris Buffered Saline (TBS) containing tween ([…]) over 10 minutes. Standard AKB48 is added at the concentrations quoted in Table 1, followed by detection agent 1 (FIG. 2) at 1/140 k in a dilution buffer. After incubation (60 mins) at +15 to +25° C. to allow a competition reaction to take place, the microtitre plate is washed with TBS containing Tween™ to remove excess reagents. The enzyme substrate […] (125 μl) is added (Kem-en-Tec Cat. No. 4800). After a 20 minute incubation period to allow maximum colour development, the colour reaction is stopped by the addition of sulphuric acid (0.2M, 120 μl). This produces a colour change from blue to yellow, and the absorbances are read at 450 nm. A standard curve is then constructed and the IC50 calculated as the AKB48 concentration which produces 50% inhibition of maximal signal. This process was repeated for synthetic cannabinoid members as stated in Table 2 to assess cross-reactivity.
The cross-reactivity (CR) was calculated using the equation below. All calculations were based upon binding and displacement at the 50% of maximum OD (optical density) binding point. The maximum OD is the signal generated using tracer alone and 50% displacement (inhibition) corresponds to the IC50. […]
The extent of antibody binding to synthetic cannabinoids of various families was assessed (Table 2). For the cross-reactants with IC50 values, standard curves were derived for each analyte (as per AKB48 and Table 1). […] In all cases, the cross-reactivity set out in Table 2 was measured using an antibody derived from the immunogen of Example 9 and Tracer 1 of Example 10.

Row | SMILES | binding to the antibodies of the invention | % CROSS-REACTIVITY [%]
1 | CCCCCn1cc(C(=O)C2C(C)(C)C2(C)C)c2ccccc21 [UR-144] | do not bind | <1.00
2 | CC1(C)C(C(=O)c2cn(CCCCCF)c3ccccc23)C1(C)C [XLR-11] | do not bind | <1.00

Source: patent US10591497B2, “Immunoassay for synthetic cannabinoids of the adamantyl indazole/indole-3-carboxamide family” (Randox Laboratories Limited, priority 2014, dated 2020)
